The text below walks through data of US5914339A, “Substituted 1,3-benzodioxoles” (American Home Products Corporation, priority 1997, dated 1999).

Read-outs that look alike come from different tables or passages of the source.

In one experiment the test system is plasma free fatty acids. Description: Effects on plasma free fatty acid levels in rats. It is filed as in vivo, rat. To be noted: for ED50: Rattus norvegicus, 50 min, read-out: Rat Free Fatty Acid: ED50. As for the experimental part:
Rats respond to a single oral dose of β3 agonists by increasing plasma free fatty acids (FFA) in response to β3 receptor stimulation on the plasma membrane of the fat cell. 5-{2-[2-(3-Chloro-phenyl)-2-hydroxy-ethylamino]-propyl}-benzo[1,3]dioxole- 2,2-dicarboxylic acid diisopropyl ester (Standard 2) was used as a standard compound. All test compounds were dosed at 0.1 mg/kg and compared to the response by Standard 2.
1). Drugs were dissolved in DMSO at 10 mg/ml.
2). Twenty μl of the DMSO-drug solution was added to 10 mL methyl cellulose:tween-80 (0.5%:0.1%) for a final concentration of 20 μg/mL.
3). Methyl cellulose:tween-80 drug suspension was given via gavage (1 mL/200 g body weight; or 0.1 mg/kg) to rats and blood was collected 50 min later.
4). Plasma was analyzed for free fatty acids using a kit supplied by Biochemical Diagnostics Inc. (Brentwood, N.Y.).
5). Drug response was calculated from the formula below. [formula]
^b Elevation of plasma free fatty acids in rats, compounds tested at
0.1 mg/kg, results expressed as % of
5{2[2(3-Chloro-phenyl)-2-hydroxy-ethylaminopropylbenzo[1,3dioxole-2,2-dic
rboxylic acid diisopropyl ester response (78% increase) at 0.1 mg/kg.
ED50 (mg/kg) values determined for selected compounds.

The target of experiment [1] is human β2 adrenergic receptor (Homo sapiens, UniProt P07550). In words: cell-based. To be noted: for activation at 0.01 µM: 10 min, read-out: β2: % of isoproterenol activity (increase in cAMP). In a few lines:
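CHO cells transfected with human β1 or β2 adrenergic receptors were grown to confluence and exposed to compound at 10 nM for 10 min at 37° C. Cellular cAMP was measured by scintillation proximity assay. Activity is expressed as % of the response to 10 μM isoproterenol; EC50 (μM) was determined for selected compounds.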

The next experiment deals with plasma glucose. Description: Effects on hyperglycemia in db/db mice, plasma glucose. It is filed as in vivo, mouse (male, db/db (C57BL/KsJ)). To be noted: Mus musculus, po, 96 h; p.o., 4 days, mean of 2 and 4 h values on Day 4; footnote c gives mg/kg/day; read-out: db/db Mice Plasma Glucose: ED50 for lowering of plasma glucose.
Experiment [2] concerns the target human β1 adrenergic receptor (Homo sapiens, UniProt P08588). In words: Human β1 adrenergic receptor agonist activity, cAMP increase in transfected CHO cells. The format is cell-based. As for the experimental part:
(§1) The activity of the test compounds on human β-adrenergic receptors was determined with Chinese hamster ovary (CHO) cells transfected with human β2, or β1 adrenergic receptors. Agonist activity is indicated by increased cAMP levels in the CHO cells. Selectivity of the test compounds for the β3 receptor was assessed by comparison with results in β2 and β1 adrenergic receptor transfected cells.
1). Chinese hamster ovary (CHO) cells transfected with human β2, or β1 adrenergic receptors were used in the assay.
2). Cells were grown to confluent conditions in 24 well plates.
3). Drugs were dissolved in DMSO at a concentration of 10 μM.
4). Cells were incubated with drug at 10 nM concentration for 10 min at 37° C.
5). Cell cAMP concentrations were assayed using a scintillation proximity assay kit from Amersham Corp., Chicago, Ill.
6). Activities for the test compounds are expressed as a percentage of the isoproterenol response.
Production of the CHO cells transfected with human β2, or β1 adrenergic receptors, and compound test procedures utilizing the CHO cells, are described by Emorine et al. in their article "Molecular Characterization of the Human Beta3 -Adrenergic Receptor", Science 1989, 245(8), 1118-1121 and by Muzzin et al. in the article "An Adipose Tissue-Specific Beta3 -Adrenergic Receptor", J. Biol. Chem.1991, 266, 24053-24058.
^a Human β receptors expressed in Chinese hamster ovary cells,
compounds tested at 10 nM, results expressed as % of isoproterenol
activity (increase in cAMP) at 10 μM. EC50 (μM) values
determined for selected compounds.

For experiment [3], the system named is human β-adrenergic receptors. Description: cAMP elevation in all 3 transfected CHO cell types. The format is cell-based. To be noted: 10 μM, all 3 cell types. As for the experimental part: as §1
4). […]

The mark [4] stands for this setting: cAMP in CHO cells, selected compounds, read-out: β2: EC50.
Setting [5] is: elevation of plasma free fatty acids, oral gavage, selected compounds.
Setting [6] is: compounds tested at 10 nM, isoproterenol at 10 μM, CHO cells, 10 min at 37° C.
[7] abbreviates: cAMP in CHO cells, selected compounds, read-out: β1: EC50.

human β1 adrenergic receptor, sequence (P08588 whole entry): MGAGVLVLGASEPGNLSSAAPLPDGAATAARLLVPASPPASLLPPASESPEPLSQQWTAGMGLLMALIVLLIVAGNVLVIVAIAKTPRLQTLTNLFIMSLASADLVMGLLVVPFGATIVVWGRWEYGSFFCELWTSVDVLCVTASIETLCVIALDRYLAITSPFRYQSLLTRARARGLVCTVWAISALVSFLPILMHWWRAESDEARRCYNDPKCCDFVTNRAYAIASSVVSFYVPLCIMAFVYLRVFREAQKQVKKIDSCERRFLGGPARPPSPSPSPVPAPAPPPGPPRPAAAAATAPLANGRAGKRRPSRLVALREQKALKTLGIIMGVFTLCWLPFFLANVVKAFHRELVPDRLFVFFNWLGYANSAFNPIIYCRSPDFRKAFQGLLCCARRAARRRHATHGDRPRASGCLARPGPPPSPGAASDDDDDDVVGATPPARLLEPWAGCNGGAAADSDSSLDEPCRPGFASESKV

Regarding `CC(Cc1ccc2c(c1)OC(C(=O)OC(C)C)(C(=O)OC(C)C)O2)NCC(O)c1cccc(Cl)c1` (stereo not shown) [5-{2-[2-(3-Chloro-phenyl)-2-hydroxy-ethylamino]-propyl}-benzo[1,3]dioxole-2,2-dicarboxylic acid diisopropyl ester, reference compound], the “increase of plasma free fatty acids” value in the experiment on plasma free fatty acids (0.1 mg/kg, rats) was 78%.
Broadly, the EC50 is the concentration at which the effect is half-maximal. For `CC(Cc1ccc2c(c1)OC(C(=O)OCCc1ccccc1)(C(=O)OCCc1ccccc1)O2)NCC(O)c1cccc(Cl)c1.Cl` (stereo not shown) [Example 2, 5-{2-[2-(3-Chloro-phenyl)-2-hydroxy-ethylamino]-propyl}-benzo[1,3]dioxole-2,2-dicarboxylic acid diphenethyl ester hydrochloride salt], the EC50 in experiment [1] (setting [4]) amounted to 0.022 µM. The values for the ED50 in the experiment on plasma free fatty acids (setting [5]) and in the experiment on plasma glucose were 0.071 mg/kg and 0.128 mg/kg, respectively.
Regarding `CC(Cc1ccc2c(c1)OC(C(=O)OC(C)c1ccccc1)(C(=O)OC(C)c1ccccc1)O2)NCC(O)c1cccc(Cl)c1` (stereo not shown) [Example 16, 5-{2-[2-(3-Chloro-phenyl)-2-hydroxy-ethylamino]-propyl}-benzo[1,3]dioxole-2,2-dicarboxylic acid bis-(1-phenyl-ethyl) ester], in the experiment with plasma free fatty acids (setting [5]), the ED50 worked out at 0.128 mg/kg.
With `CC(Cc1ccc2c(c1)OC(C(=O)OCCOC(C)C)(C(=O)OCCOC(C)C)O2)NCC(O)c1cccc(Cl)c1` (stereo not shown) [Example 21, 5-{2-[2-(3-Chloro-phenyl)-2-hydroxy-ethylamino]-propyl}-benzo[1,3]dioxole-2,2-dicarboxylic acid bis-(2-isopropoxy-ethyl) ester], in experiment [1] (setting [6]), the activation at 0.01 µM amounted to 2%. Besides, the ED50 in the experiment with plasma free fatty acids (setting [5]) is 0.086 mg/kg.
For `CC(Cc1ccc2c(c1)OC(C(=O)OCC[Si](C)(C)C)(C(=O)OCC[Si](C)(C)C)O2)NCC(O)c1cccc(Cl)c1` (stereo not shown) [Example 31, 5-{2-[2-(3-Chloro-phenyl)-2-hydroxy-ethylamino]-propyl}-benzo[1,3]dioxole-2,2-dicarboxylic acid bis-(2-trimethylsilanyl-ethyl) ester], the activation at 0.01 µM in experiment [1] (CHO) was 5%. The ED50 in the experiment with plasma free fatty acids (po) came to 0.09 mg/kg.
Take `CC(Cc1ccc2c(c1)OC(C(=O)OCCC(C)(C)C)(C(=O)OCCC(C)(C)C)O2)NCC(O)c1cccc(Cl)c1` (stereo not shown) [Example 33, 5-{2-[2-(3-Chloro-phenyl)-2-hydroxy-ethylamino]-propyl}-benzo[1,3]dioxole-2,2-dicarboxylic acid bis-(3,3-dimethyl-butyl) ester]: the EC50 was found to be 0.1 µM in experiment [1] (setting [4]) and 5.9 µM in experiment [2] (setting [7]). The ED50 was found to be 0.08 mg/kg with plasma free fatty acids (setting [5]) and 0.201 mg/kg in the experiment on plasma glucose.
As to `CC(Cc1ccc2c(c1)OC(C(=O)OCC1CC1)(C(=O)OCC1CC1)O2)NCC(O)c1cccc(Cl)c1` (stereo not shown) [Example 38, 5-{2-[2-(3-Chloro-phenyl)-2-hydroxy-ethylamino]-propyl}-benzo[1,3]dioxole-2,2-dicarboxylic acid bis-cyclopropylmethyl ester], the EC50 in experiment [1] (setting [4]) was 0.274 µM. Moreover, the ED50 with plasma free fatty acids (setting [5]) amounted to 0.086 mg/kg.
On to `CC(Cc1ccc2c(c1)OC(C(=O)OCC1CCC1)(C(=O)OCC1CCC1)O2)NCC(O)c1cccc(Cl)c1` (stereo not shown) [Example 40, 5-{2-[2-(3-Chloro-phenyl)-2-hydroxy-ethylamino]-propyl}-benzo[1,3]dioxole-2,2-dicarboxylic acid bis-cyclobutylmethyl ester], for which the EC50 in experiment [1] (setting [4]) stood at 0.42 µM; in experiment [2] (setting [7]), 8.4 µM. Besides, the ED50 in the experiment on plasma free fatty acids (setting [5]) came to 0.071 mg/kg.
On to `CC(Cc1ccc2c(c1)OC(C(=O)O)(C(=O)OCC1CCC1)O2)NCC(O)c1cccc(Cl)c1` (stereo not shown) [Example 70, 5-{2-[2-(3-Chloro-phenyl)-2-hydroxy-ethylamino]-propyl}-benzo[1,3]dioxole-2,2-dicarboxylic acid cyclobutylmethyl ester], for which the EC50 came out at 0.048 µM in experiment [1] and 3 µM in experiment [2].
As to `CC(Cc1ccc2c(c1)OC(C(=O)OCCc1ccsc1)(C(=O)OCCc1ccsc1)O2)NCC(O)c1cccc(Cl)c1` (stereo not shown) [Example 71, 5-{2-[2-(3-Chloro-phenyl)-2-hydroxy-ethylamino]-propyl}-benzo[1,3]dioxole-2,2-dicarboxylic acid bis 2-(3-Thienyl)ethyl-ester], the activation at 0.01 µM in experiment [1] (setting [6]) is 14%. Besides, in the experiment on plasma free fatty acids (setting [5]), the ED50 was determined as 0.076 mg/kg.
Consider `CC(C)CCOC(=O)C1(C(=O)OCCC(C)C)Oc2ccc(C[C@@H](C)NC[C@H](O)c3cccc(Cl)c3)cc2O1` [Example 75, 5-{(2R)-2-[(2R)-2-(3-Chloro-phenyl)-2-hydroxy-ethylamino]-propyl}-benzo[1,3]dioxole-2,2-dicarboxylic acid bis-(3-methylbutyl)ester], for which the EC50 is 0.058 µM in experiment [1] (setting [4]) and 5.4 µM in experiment [2] (setting [7]). The results for the ED50 in the experiment on plasma free fatty acids (setting [5]) and in the experiment on plasma glucose were 0.026 mg/kg and 0.11 mg/kg, respectively.
With `CC(C)CCOC(=O)C1(C(=O)O)Oc2ccc(C[C@@H](C)NC[C@H](O)c3cccc(Cl)c3)cc2O1` (stereo partly drawn) [Example 76, 5-{(2R)-2-[(2R)-2-(3-Chloro-phenyl)-2-hydroxy-ethylamino]-propyl}-benzo[1,3]dioxole-2,2-dicarboxylic acid (3-methylbutyl)ester], the EC50 is 0.074 µM in experiment [1] and 0.98 µM in experiment [2].
Consider `C[C@H](Cc1ccc2c(c1)OC(C(=O)OCC(C)(C)C)(C(=O)OCC(C)(C)C)O2)NC[C@H](O)c1cccc(Cl)c1` [Example 78, 5-{(2R)-2-[(2R)-2-(3-Chloro-phenyl)-2-hydroxy-ethylamino]-propyl}-benzo[1,3]dioxole-2,2-dicarboxylic acid bis-(2,2-dimethyl-propyl) ester], for which the EC50 was determined as 0.325 µM in experiment [1] (setting [4]) and 5 µM in experiment [2] (setting [7]). The ED50 came to 0.027 mg/kg with plasma free fatty acids (setting [5]) and 0.028 mg/kg with plasma glucose.
With `C[C@H](Cc1ccc2c(c1)OC(C(=O)O)(C(=O)OCC(C)(C)C)O2)NC[C@H](O)c1cccc(Cl)c1` (stereo partly drawn) [Example 80, 5-{(2R)-2-[(2R)-2-(3-Chloro-phenyl)-2-hydroxy-ethylamino]-propyl}-benzo[1,3]dioxole-2,2-dicarboxylic acid (2,2-dimethyl-propyl)ester], the EC50 in experiment [1] is 0.055 µM; in experiment [2] it was 2.4 µM.
Regarding `C[C@H](Cc1ccc2c(c1)OC(C(=O)O)(C(=O)OCCC(C)(C)C)O2)NC[C@H](O)c1cccc(Cl)c1` (stereo partly drawn) [Example 81, 5-{(2R)-2-[(2R)-2-(3-Chloro-phenyl)-2-hydroxy-ethylamino]-propyl}-benzo[1,3]dioxole-2,2-dicarboxylic acid (3,3-dimethylbutyl) ester], the EC50 in experiment [1] (setting [4]) was determined as 0.059 µM; in experiment [2] (setting [7]), 0.38 µM.
Regarding `C[C@H](Cc1ccc2c(c1)OC(C(=O)OCCCOCc1ccccc1)(C(=O)OCCCOCc1ccccc1)O2)NC[C@H](O)c1cccc(Cl)c1` [Example 104, 5-{(2R)-2-[(2R)-2-(3-Chloro-phenyl)-2-hydroxy-ethylamino]-propyl}benzo[1,3]dioxole-2,2-dicarboxylic acid bis-(3-benzyloxy-propyl)ester], the activation at 0.01 µM in experiment [1] (setting [6]) turned out to be 2%.
Regarding `CC(C)NCC(O)c1ccc(O)c(O)c1` (stereo not shown) [Isoproterenol], the cAMP elevation result in experiment [3] was “maximal cAMP elevation”.
“Carbonic acid 3-chloro-benzyl ester 2-(3-chloro-benzyloxycarbonyloxy)-4-{2-[2-(3-chloro-phenyl)-2-hydroxy-ethylamino]-propyl}-phenyl ester [Example 15]”: the “β2: % of isoproterenol activity (increase in cAMP)” value in experiment [1] (setting [6]) is recorded as 18%. Also, the “Rat Free Fatty Acid: elevation of plasma free fatty acids, % of diisopropyl ester (Standard 2) response” value in the experiment with plasma free fatty acids (0.1 mg/kg, gavage, blood collected 50 min later) is on record as 46%.
